Test results taken from ChEMBL document CHEMBL1201862, “PubChem BioAssay data set” (2004).
The source made the active and inactive calls.

Assays:
[1] = MC4R antagonists, dose response, counter-screen for LGR2 antagonist project, cell-based, plate reader, cherry pick (AID 743444); format: functional;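 note: transfected HEK 293 cells stimulated with alpha-MSH peptide; potency of inhibitors of the alpha-MSH evoked signal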
[2] = LGR2 antagonists, dose response, cell-based, HEK293, CRE-luciferase reporter, cherry pick, set 2 (AID 743343); format: functional;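 note: transfected cells were stimulated with diluted bursicon conditioned medium after compound addition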
[3] = A549 cell cytotoxicity, dose response, cytotoxicity control, plate reader, cherry-pick, antagonist series (AID 743412); format: functional, cell-based
cells [4] = format: functional
[5] = THP-1 cell cytotoxicity, dose response, cytotoxicity control for non-replicating M. tuberculosis project (AID 489025); format: functional
[6] = microbe, parasite or virus in culture; format: functional; settings: Mycobacterium tuberculosis
Cytochrome P450 3A4 = Cytochrome P450 3A4 (Homo sapiens, UniProt P08684); settings: Potency;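 note: confirmatory qHTS run detecting inhibitors and substrates of CYP3A4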
[7] = test system: Streptococcus sp. 'group A'; test: growth inhibition of control SK(-) GAS strain, dose response, counter-screen for streptokinase expression inhibitor project, luminescence, kanamycin, BacTiterGlo, confirmation (AID 1900); format: functional, organism-based
[8] = target: T1, Corticotropin-releasing factor receptor 2/Corticotropin-releasing factor-binding protein (Homo sapiens, UniProt P24387+Q13324); test: activators of CRF receptor 2 with binding protein – uHTS hits, confirmation (AID 602473); format: functional; settings: read-out: EC50_Mean
T1 sequence (Q13324 whole entry): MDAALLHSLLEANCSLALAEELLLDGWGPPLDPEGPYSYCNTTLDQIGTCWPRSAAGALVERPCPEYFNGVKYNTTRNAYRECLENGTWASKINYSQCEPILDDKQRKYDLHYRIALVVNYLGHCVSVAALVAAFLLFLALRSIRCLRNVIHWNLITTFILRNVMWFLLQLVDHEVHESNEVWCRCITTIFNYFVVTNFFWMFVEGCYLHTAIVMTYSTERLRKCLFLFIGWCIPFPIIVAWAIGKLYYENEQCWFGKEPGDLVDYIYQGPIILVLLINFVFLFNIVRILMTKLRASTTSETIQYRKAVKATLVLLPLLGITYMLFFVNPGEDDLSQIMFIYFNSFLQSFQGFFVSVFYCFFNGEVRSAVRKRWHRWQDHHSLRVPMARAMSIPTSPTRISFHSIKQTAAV
T1 sequence (P24387 whole entry): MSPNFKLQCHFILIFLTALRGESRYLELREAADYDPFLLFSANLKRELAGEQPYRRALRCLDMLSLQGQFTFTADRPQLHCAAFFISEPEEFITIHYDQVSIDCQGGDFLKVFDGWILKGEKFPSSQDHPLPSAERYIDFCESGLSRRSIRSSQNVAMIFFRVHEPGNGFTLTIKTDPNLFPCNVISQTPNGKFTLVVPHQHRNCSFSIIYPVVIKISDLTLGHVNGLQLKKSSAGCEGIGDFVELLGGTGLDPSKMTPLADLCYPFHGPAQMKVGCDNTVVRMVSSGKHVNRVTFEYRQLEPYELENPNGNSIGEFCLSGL

[9] = Luminescence Cell-Based Dose Retest to Confirm Inhibitors of Cancer Stem Cells. [Related pubchem assays (depositor defined):AID2717, AID2721]; format: functional; settings: Homo sapiens
Streptococcus = test: Group A Streptococcus viability loss, dose response, counter-screen for streptokinase expression inhibitor project, luminescence, BacTiterGlo (AID 1915); format: functional, organism-based;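 note: potency for reduction of bacterial viability or growth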
[10] = target: T2, DNA repair and recombination protein RAD54-like (Homo sapiens, UniProt Q92698); test: inhibitors of human RAD54 branch migration, confirmation, biochemical, fluorescence, cherry-picked samples, dose series (AID 651657); format: functional
T2 sequence (Q92698 whole entry): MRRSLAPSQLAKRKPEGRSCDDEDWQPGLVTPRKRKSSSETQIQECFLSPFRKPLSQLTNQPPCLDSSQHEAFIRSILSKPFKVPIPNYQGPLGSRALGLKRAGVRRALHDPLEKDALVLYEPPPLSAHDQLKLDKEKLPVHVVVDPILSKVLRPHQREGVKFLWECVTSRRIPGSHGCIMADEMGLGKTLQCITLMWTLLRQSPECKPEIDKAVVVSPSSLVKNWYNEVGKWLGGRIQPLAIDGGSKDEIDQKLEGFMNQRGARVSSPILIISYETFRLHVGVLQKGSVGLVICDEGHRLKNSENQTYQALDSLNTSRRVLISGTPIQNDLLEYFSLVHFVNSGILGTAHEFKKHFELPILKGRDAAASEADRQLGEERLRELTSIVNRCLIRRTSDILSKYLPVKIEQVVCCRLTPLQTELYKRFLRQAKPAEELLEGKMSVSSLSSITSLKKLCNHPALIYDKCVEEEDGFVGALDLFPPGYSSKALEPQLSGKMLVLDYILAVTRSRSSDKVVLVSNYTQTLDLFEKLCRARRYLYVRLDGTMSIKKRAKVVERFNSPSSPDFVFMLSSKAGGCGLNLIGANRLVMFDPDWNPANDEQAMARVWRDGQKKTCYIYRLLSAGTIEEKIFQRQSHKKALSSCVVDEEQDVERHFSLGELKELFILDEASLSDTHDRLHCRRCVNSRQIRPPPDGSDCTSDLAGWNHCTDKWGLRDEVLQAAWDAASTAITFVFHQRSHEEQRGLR

[11] = target: T3, Ubiquitin-conjugating enzyme E2 N (Homo sapiens, UniProt P61088); format: functional;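 note: Dose-response confirmation in a TR-FRET assay detecting UBC13-driven polyubiquitin chain formation, inhibition measured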
T3 sequence (P61088 whole entry): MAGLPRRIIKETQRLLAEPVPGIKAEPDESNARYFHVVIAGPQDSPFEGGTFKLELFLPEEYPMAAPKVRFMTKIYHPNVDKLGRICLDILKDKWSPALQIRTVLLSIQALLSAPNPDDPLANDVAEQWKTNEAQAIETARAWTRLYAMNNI

[12] = off-target signal loss in HeLa-CEM21 co-culture – HeLa F-luc CTL cells, cherry-picked, counter-screen for HIV-1 Env fusion inhibitor project, dose response (AID 652040); format: functional, cell-based;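 note: potency for signal decrease marking cytotoxic or nonspecific inhibition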
[13] = inhibitors of clade B AD8 Env fusion, dose response, cell-based, cherry-pick (AID 652062); format: functional;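 note: luciferase signal from cell-cell fusion driven by HIV-1 clade B AD8 Env; potency is for inhibitors of fusion seen as a drop in luminescence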
[14] = ZM109 Env clade C HIV-1 fusion inhibitors, dose response, HeLa effector, CEM target cells, luciferase, cherry-pick (AID 652058); format: functional, cell-based
[15] = inhibitors of HIV Env-driven cell fusion, dose response, cherry-pick (AID 652057); format: functional, cell-based
cells [16] = format: functional, cell-based
cells [17] = format: functional, cell-based; remark: listed apart in the source
[18] = target: T4, Trace amine-associated receptor 1 (Homo sapiens, UniProt Q96RJ0); test: Counterscreen for agonists of the human trace amine associated receptor 1 (hTAAR1): Fluorescence-based cell-based high throughput dose response assay to identify hTAAR1 agonist that also desensitize TAAR1 receptor response.; format: functional
T4 sequence (Q96RJ0 whole entry): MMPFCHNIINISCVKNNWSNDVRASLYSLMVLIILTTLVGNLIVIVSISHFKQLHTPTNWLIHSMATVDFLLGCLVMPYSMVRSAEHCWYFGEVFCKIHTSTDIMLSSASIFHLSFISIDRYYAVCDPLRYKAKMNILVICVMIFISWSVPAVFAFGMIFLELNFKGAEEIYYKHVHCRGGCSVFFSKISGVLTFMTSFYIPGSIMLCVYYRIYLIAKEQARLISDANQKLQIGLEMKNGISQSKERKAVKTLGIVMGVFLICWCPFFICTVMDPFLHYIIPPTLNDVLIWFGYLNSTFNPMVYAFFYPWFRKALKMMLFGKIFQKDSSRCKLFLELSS

[19] = target: T4, Trace amine-associated receptor 1; test: Fluorescence-based cell-based high throughput dose response assay to identify agonists of the human trace amine associated receptor 1 (TAAR1).; format: functional
H4 = test: Luminescence Cell-Based Dose Response HTS to Identify Activators of 5'UTR Stem-Loop Driven Prion Protein mRNA Translation in H4 Neuroglioblastoma Cells. [Related pubchem assays: 1829 (Project Summary), 1814 (Primary HTS)]; format: functional; settings: Homo sapiens
[20] = Luminescence Cell-Based Dose Response HTS to Identify Activators of Luciferase Translation or Activity in H4 […] Cells. [Related pubchem assays: 1829 (Project Summary), 1814 (Primary HTS)]; format: functional
[21] = Luminescence Cell-Based Dose Confirmation HTS to Identify Activators of 5'UTR Stem-Loop Driven Alpha-Synuclein mRNA Translation in H4 Neuroglioblastoma Cells. [Related pubchem assays: 1829 (Project Summary), 1814 (Primary HTS)]; format: functional
[22] = cytotoxicity in HEK-293T cells, dose response, cytotoxicity control for BCR NF-kB inhibitor project, luminescence, B-cell screen hits (AID 489021); format: functional, cell-based;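 note: HEK-293T cells carrying an NF-kB luciferase reporter; cells exposed to compound for about 14 hours before viability readout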

Chain of Cytochrome P450 3A4 (P08684 whole entry): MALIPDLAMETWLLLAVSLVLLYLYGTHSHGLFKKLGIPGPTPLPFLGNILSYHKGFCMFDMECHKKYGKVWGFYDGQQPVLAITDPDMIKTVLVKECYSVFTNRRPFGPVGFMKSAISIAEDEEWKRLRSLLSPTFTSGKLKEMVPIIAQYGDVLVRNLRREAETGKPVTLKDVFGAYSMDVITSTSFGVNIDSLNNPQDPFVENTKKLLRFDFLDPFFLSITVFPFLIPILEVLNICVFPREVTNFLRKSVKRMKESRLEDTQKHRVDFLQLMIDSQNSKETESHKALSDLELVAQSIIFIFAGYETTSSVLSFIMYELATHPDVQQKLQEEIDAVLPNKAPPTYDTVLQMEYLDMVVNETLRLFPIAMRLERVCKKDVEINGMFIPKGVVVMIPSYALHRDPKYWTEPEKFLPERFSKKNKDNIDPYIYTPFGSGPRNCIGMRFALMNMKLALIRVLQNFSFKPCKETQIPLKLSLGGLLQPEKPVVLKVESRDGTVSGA

## COCCOc1cc(NCc2ccccc2)c2ncn(C(C)C)c2c1
[1]
  AC50: 17.9 µM (active)
[2]
  AC50: 12 µM (active)
[3]
  AC50: 44.3 µM (active)

## CC(C)N1C(=O)NC(=O)C2(Cc3cc([N+](=O)[O-])ccc3N(C)C2c2ccccc2)C1=O (configuration not stated)
Cells [4]
  IC50: 27.3 µM (active)
[5]
  CC50: > 40 µM (active)
[6]
  CC50: > 40 µM (active)

## CNC(=O)C1(C)C=CC2(CCCCC2)N1C(C)=O (configuration not stated)
Cytochrome P450 3A4
  AC50: 15.8 µM (inconclusive)

## COC1=CC(=O)OC(CCc2ccccc2)C1 (configuration not stated)
Cytochrome P450 3A4
  AC50: 12.6 µM (inconclusive)

## O=C(Nc1nnc(-c2ccc(Cl)cc2)o1)c1nc2ccccc2s1
[7]
  EC50: 0.289 µM (active)
Cells [4]
  IC50: 1.5 µM (active)
[8]
  EC50: 2.26 µM (active)
[5]
  CC50: > 40 µM (active)
[9]
  AC50: 3.56 µM (active)
Streptococcus
  EC50: 0.936 µM (active)

## CCN(CC)CCNC(=O)c1cc2c(=O)n(C)c3ccccc3c2s1
[10]
  AC50: 19.6 µM (active)
[11]
  IC50: > 20 µM (inactive)

## Cc1nnc(SCc2nc3ccccc3c(=O)n2-c2ccccc2Cl)n1N
[12]
  AC50: 4.79 µM (active)
[13]
  AC50: 10.2 µM (active)
[14]
  AC50: 4.98 µM (active)
[15]
  AC50: 4.45 µM (active)

## Nc1c(NCCc2ccccc2)c2ccccc2oc1=O
Cells [16]
  EC50: > 29.9 µM (inactive)
Cells [17]
  IC50: > 29.9 µM (inactive)
[18]
  IC50: 6.4 µM (active)
[19]
  EC50: 1.86 µM (active)

## CCN(CC)CCCNC(=O)c1ccc2c3n(nc2c1)-c1ccc(Cl)cc1CO3
H4
  EC50: 0.334 µM (active)
[20]
  EC50: 3.59 µM (active)
[10]
  AC50: 44.5 µM (active)
[21]
  EC50: 101 µM (active)

## Cc1cc(OC(=O)c2ccccc2Cl)cc(=O)n1C
[22]
  IC50: > 80 µM (inactive)

## COc1cc2cc[n+]3cc4c(OC)c(OC)ccc4cc3c2cc1OC
Cytochrome P450 3A4
  AC50: 20 µM (inconclusive)

## CCOC(=O)CNC(=O)CNC(=O)c1nn(-c2ccc(OC)c(Cl)c2)c(=O)c2ccccc12
Cells [4]
  IC50: 17.8 µM (active)
[5]
  CC50: > 40 µM (active)
